The experiment has as its target recombinant human PAI-1 (Homo sapiens, UniProt P05121). The experiment can be described thus: biochemical. To be noted: read-out: Inhibition Rate of PAI-1 Activity (%).

The text below walks through data of patent EP2272817A1, “PAI-1 INHIBITOR” (Institute of Medicinal Molecular Design, Inc., priority 2008, dated 2009).

What is called inhibition is the relative decrease from the control value, in per cent.
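Further: PAI-1 preincubated with compound, then two-chain tPA added, residual tPA activity read with fluorogenic Pyr-Gly-Arg-MCA substrate after 30 min at room temperature.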

Chain of recombinant human PAI-1 (P05121 24-402): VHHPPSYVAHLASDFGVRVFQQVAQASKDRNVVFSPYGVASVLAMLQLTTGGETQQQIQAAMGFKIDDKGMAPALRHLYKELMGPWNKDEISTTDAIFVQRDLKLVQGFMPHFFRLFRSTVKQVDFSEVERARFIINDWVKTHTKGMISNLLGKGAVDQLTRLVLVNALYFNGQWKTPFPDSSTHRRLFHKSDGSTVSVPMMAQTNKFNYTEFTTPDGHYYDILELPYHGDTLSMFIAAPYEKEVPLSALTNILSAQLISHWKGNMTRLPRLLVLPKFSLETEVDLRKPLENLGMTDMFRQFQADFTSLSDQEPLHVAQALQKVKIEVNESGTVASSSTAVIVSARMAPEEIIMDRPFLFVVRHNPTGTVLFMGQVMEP
Experimental: To this solution, 6 µl of 80 nM recombinant human PAI-1 (Molecular Innovations, Inc.) solution prepared with Tris buffer was added, and the plate was incubated for 5 minutes at room temperature. Furthermore, 30 µl of 800 IU/ml two-chain tPA (Activity Standard; American diagnostica, inc.) prepared with Tris buffer was added, and the mixed solution was incubated for 15 minutes at room temperature. Then, 30 µl of 400 µM fluorogenic substrate (Pyr-Gly-Arg-MCA; Peptide Institute, Inc.) for tPA prepared with Tris buffer was added and reacted for 30 minutes at room temperature.
50 mM Tris, 150 mM NaCl, 10 µg/ml BSA, 0.01 % Tween80 (SIGMA-ALDRICH Corporation)

For `CC(c1ccc(C(C)(C)C)cc1)N(C(=O)C(=O)O)c1ccc(-c2ccc(OC(F)(F)F)cc2)cc1` (stereo not drawn) [Compound 220], the inhibition at 5 µM was found to be 51%, the inhibition at 10 µM came out at 86% and the inhibition at 25 µM stood at 89%.
On to `O=C(O)C(=O)N(CCc1ccccc1)c1ccc(-c2ccc(OC(F)(F)F)cc2)cc1` [Compound 223], for which the inhibition at 5 µM came out at 13% and the inhibition at 10 µM amounted to 27%.
For `O=C(O)C(=O)N(CCCc1ccccc1)c1ccc(-c2ccc(OC(F)(F)F)cc2)cc1` [Compound 224], the inhibition at 5 µM came out at 29%, the inhibition at 10 µM turned out to be 53% and the inhibition at 25 µM is 86%.
In the case of `O=C(O)C(=O)N(CCCCc1ccccc1)c1ccc(-c2ccc(OC(F)(F)F)cc2)cc1` [Compound 225], the inhibition at 5 µM is 27%, the inhibition at 10 µM came to 50% and the inhibition at 25 µM amounted to 88%.
For `O=C(O)C(=O)N(CCCCCc1ccccc1)c1ccc(-c2ccc(OC(F)(F)F)cc2)cc1` [Compound 228], in that order: 45%, 71% and 95%.
For `CCCOc1ccc(N(CCCc2ccccc2)C(=O)C(=O)O)cc1-c1ccc(OC(F)(F)F)cc1` [Compound 229], in that order: 48%, 80% and 94%.
Regarding `CCCOc1ccc(N(CCCc2ccccc2)C(=O)C(=O)O)c(-c2ccc(OC(F)(F)F)cc2)c1` [Compound 232], the inhibition at 5 µM turned out to be 52%, the inhibition at 10 µM worked out at 82% and the inhibition at 25 µM turned out to be 96%.
For `CCCOc1ccc(-c2ccc(OC(F)(F)F)cc2)cc1N(CCCc1ccccc1)C(=O)C(=O)O` [Compound 234], in that order: 59%, 83% and 96%.
For `CCCCOc1ccc(-c2ccc(OC(F)(F)F)cc2)cc1N(CCCc1ccccc1)C(=O)C(=O)O` [Compound 235], in that order: 66%, 89% and 93%.
For `CCCOc1ccc(-c2ccc(OC(F)(F)F)cc2)cc1N(CCCCc1ccccc1)C(=O)C(=O)O` [Compound 236], in that order: 61%, 86% and 95%.
In the case of `CCC(CC)Oc1ccc(N(CCCc2ccccc2)C(=O)C(=O)O)c(-c2ccc(OC(F)(F)F)cc2)c1` [Compound 237], the inhibition at 5 µM stood at 75% and the inhibition at 10 µM was found to be 92%.
For the compound `CC(C)Oc1ccc(N(CCCc2ccccc2)C(=O)C(=O)O)c(-c2ccc(OC(F)(F)F)cc2)c1` [Compound 239], the inhibition at 5 µM turned out to be 43%, the inhibition at 10 µM turned out to be 80% and the inhibition at 25 µM came out at 98%.
On to `CCCOc1ccc(N(CCCCc2ccccc2)C(=O)C(=O)O)cc1-c1ccc(OC(F)(F)F)cc1` [Compound 240], for which the inhibition at 5 µM was determined as 62%, the inhibition at 10 µM came to 91% and the inhibition at 25 µM stood at 95%.
With `CCCCCOc1ccc(-c2ccc(OC(F)(F)F)cc2)cc1N(CCCCCc1ccccc1)C(=O)C(=O)O` [Compound 242], the inhibition at 5 µM is 88% and the inhibition at 10 µM is 94%.
As for `O=C(O)C(=O)N(CCCCc1ccccc1)c1ccc(N2CCOCC2)c(-c2ccc(OC(F)(F)F)cc2)c1` [Compound 243], the inhibition at 5 µM worked out at 42%, the inhibition at 10 µM was 64% and the inhibition at 25 µM was 89%.
For the compound `CCCCCOc1ccc(N(CCCCc2ccccc2)C(=O)C(=O)O)cc1-c1ccc(OC(F)(F)F)cc1` [Compound 244], the inhibition at 5 µM was determined as 71% and the inhibition at 10 µM is 91%.
Taken in the same sequence, the figures for `CCCCCCOc1ccc(-c2ccc(OC(F)(F)F)cc2)cc1N(CCCCc1ccccc1)C(=O)C(=O)O` [Compound 245] were 93% and 97%.
For `Cc1cc(N(C)C)c(-c2ccc(OC(F)(F)F)cc2)cc1N(CCCCc1ccccc1)C(=O)C(=O)O` [Compound 246], in that order: 79% and 96%.
For `O=C(O)C(=O)N(CCCCc1ccccc1)c1ccc(N2CCCCC2)c(-c2ccc(OC(F)(F)F)cc2)c1` [Compound 247], in that order: 93% and 99%.
As for `CC(C)Oc1ccc(N(CCCCc2ccccc2)C(=O)C(=O)O)cc1-c1ccc(OC(F)(F)F)cc1` [Compound 248], the inhibition at 5 µM was found to be 60%, the inhibition at 10 µM stood at 89% and the inhibition at 25 µM is 96%.
For the compound `CC(C)(C)Oc1ccc(N(CCCCc2ccccc2)C(=O)C(=O)O)cc1-c1ccc(OC(F)(F)F)cc1` [Compound 249], the inhibition at 5 µM was 68% and the inhibition at 10 µM turned out to be 89%.
Take `O=C(O)C(=O)N(CCCCc1ccccc1)c1ccc(N2CCCCC2=O)c(-c2ccc(OC(F)(F)F)cc2)c1` [Compound 250]: the inhibition at 5 µM came out at 83% and the inhibition at 10 µM is 78%.
Consider `CCCCCCN(C(=O)C(=O)O)c1ccc(Oc2ccc(OC(F)(F)F)cc2)cc1` [Compound 252], for which the inhibition at 5 µM is 3%, the inhibition at 10 µM was determined as 6% and the inhibition at 25 µM amounted to 34%.
Regarding `O=C(O)C(=O)N(c1ccc(-c2ccc(OC(F)(F)F)cc2)cc1)C1CCCCC1` [Compound 253], the inhibition at 5 µM stood at 9%, the inhibition at 10 µM was 16% and the inhibition at 25 µM worked out at 36%.
Regarding `CCCCCN(C(=O)C(=O)O)c1ccc(-c2ccc(OC(F)(F)F)cc2)cc1` [Compound 254], the inhibition at 5 µM was 3%, the inhibition at 10 µM worked out at 9% and the inhibition at 25 µM is 31%.
On to `CC(C)(C)CN(C(=O)C(=O)O)c1ccc(-c2ccc(OC(F)(F)F)cc2)cc1` [Compound 255], for which the inhibition at 5 µM was determined as 2%, the inhibition at 10 µM amounted to 8% and the inhibition at 25 µM came out at 23%.
In the case of `O=C(O)CCc1cc(OCc2ccc(OC(F)(F)F)cc2)ccc1OCc1ccc(OC(F)(F)F)cc1` [Compound 404], the inhibition at 5 µM turned out to be 14%, the inhibition at 10 µM was determined as 31% and the inhibition at 25 µM is 84%.
Taken in the same sequence, the figures for `CC(C)(C)c1ccc(COc2cc(/C=C/C(=O)O)cc(Oc3ccc(OC(F)(F)F)cc3)c2)cc1` [Compound 409] were 26%, 59% and 97%.
Taken in the same sequence, the figures for `CC(C)(C)c1ccc(COc2cc(CCC(=O)O)cc(Oc3ccc(OC(F)(F)F)cc3)c2)cc1` [Compound 410] were 37%, 71% and 98%.
With `CC(C)(C)c1ccc(COc2ccc(Nc3ccc(OC(F)(F)F)cc3)cc2CCC(=O)O)cc1` [Compound 412], the inhibition at 5 µM was determined as 22%, the inhibition at 10 µM came to 46% and the inhibition at 25 µM was found to be 92%.
For the compound `CC(C)(C)c1ccc(COc2ccc(OCc3ccc(OC(F)(F)F)cc3)cc2/C=C/C(=O)O)cc1` [Compound 413], the inhibition at 5 µM stood at 38%, the inhibition at 10 µM is 66% and the inhibition at 25 µM turned out to be 84%.
For `CC(C)(C)c1ccc(COc2ccc(OCc3ccc(OC(F)(F)F)cc3)cc2CCC(=O)O)cc1` [Compound 414], in that order: 33%, 67% and 96%.
Taken in the same sequence, the figures for `CN(c1ccc(OC(F)(F)F)cc1)c1ccc(OCc2ccc(C(C)(C)C)cc2)c(CCC(=O)O)c1` [Compound 417] were 44%, 79% and 98%.
For the compound `CC(C)(Nc1cc(-c2ccc(OC(F)(F)F)cc2)ccc1OCc1ccc(C(C)(C)C)cc1)C(=O)O` [Compound 420], the inhibition at 5 µM worked out at 42%, the inhibition at 10 µM worked out at 64% and the inhibition at 25 µM is 83%.
Taken in the same sequence, the figures for `CC(C)(C)c1ccc(-c2ccc(Oc3ccc(-c4ccc(OC(F)(F)F)cc4)cc3/C=C/C(=O)O)c(CCC(=O)O)c2)cc1` [Compound 540] were 75%, 91% and 91%.
Taken in the same sequence, the figures for `CC(C)(C)c1ccc(-c2ccc(Oc3ccc(-c4ccc(OC(F)(F)F)cc4)cc3CCC(=O)O)c(CCC(=O)O)c2)cc1` [Compound 541] were 77%, 93% and greater than 99%.
On to `CC(C)(C)c1ccc(Oc2ccc(-c3ccc(OC(F)(F)F)cc3)cc2CCC(=O)O)c(CCC(=O)O)c1` [Compound 542], for which the inhibition at 0.5 µM is 0%, the inhibition at 1 µM came out at 14% and the inhibition at 5 µM is 67%.
With `CC(C)(C)c1ccc(COc2cc(-c3ccc(OC(F)(F)F)cc3)cc(O)c2OCC(=O)O)cc1` [Compound 546], the inhibition at 0.5 µM stood at 4%, the inhibition at 1 µM was 14% and the inhibition at 5 µM amounted to 61%.
As to `CC(C)(C)c1ccc(CN(C(=O)CCC(=O)O)c2ccc(-c3ccc(OC(F)(F)F)cc3)cc2)cc1` [Compound 609], the inhibition at 5 µM was determined as 38%, the inhibition at 10 µM was 69% and the inhibition at 25 µM was greater than 99%.
For `CC(C)(C)c1ccc(CN(C(=O)C(=O)O)c2ccc(OCc3ccc(OC(F)(F)F)cc3)cc2)cc1` [Compound 616], in that order: 49%, 83% and 96%.
In the case of `CC(C)(C)c1ccc(CN(C(=O)C(=O)O)c2cccc(OCc3ccc(OC(F)(F)F)cc3)c2)cc1` [Compound 619], the inhibition at 5 µM was determined as 48%, the inhibition at 10 µM is 83% and the inhibition at 25 µM came out at 92%.
In the case of `CC(C)(C)c1ccc(CN(C(=O)C(=O)O)c2ccccc2OCc2ccc(OC(F)(F)F)cc2)cc1` [Compound 620], the inhibition at 5 µM worked out at 41%, the inhibition at 10 µM came out at 77% and the inhibition at 25 µM was 95%.
Taken in the same sequence, the figures for `CC(C)(C)c1ccc(CN(C(=O)C(=O)O)c2ccc(Sc3ccc(OC(F)(F)F)cc3)cc2)cc1` [Compound 621] were 67%, 95% and 91%.
